Experimental data published in the supplement of paper PMC10307832.

Legend:
Assay in all cases: relative viability (nuclei count vs DMSO), 5 days (fraction); higher = more cells survive
[1] = compound: NCC(=O)Nc1ccc(-n2nc(C(F)(F)F)cc2-c2ccc3c(ccc4ccccc43)c2)cc1 + O=C(c1cc(Cc2n[nH]c(=O)c3ccccc23)ccc1F)N1CCN(C(=O)C2CC2)CC1 [Olaparib] (partner 8 µM)
How it was run: (§1)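 Lung cancer cell lines were seeded in 1536-well plates and dosed by pin tool the next day, with either a single drug or a fixed anchor-drug dose combined with five library-drug doses (not always all listed) spaced in √10 steps. Five days later, one step fixed the cells and stained their nuclei (final 0.05% Triton X-100, 1% formaldehyde, 1 ug/ml Hoechst), and nuclei were counted on 4× images. Relative viability is the nuclei count in treated wells divided by the count in vehicle wells, and each value is the median of duplicate plates.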

[2] = compound: NCC(=O)Nc1ccc(-n2nc(C(F)(F)F)cc2-c2ccc3c(ccc4ccccc43)c2)cc1 + N=C(N)NC(=N)NCCc1ccccc1 [Phenformin] (partner 250 µM)
How it was run: as §1

[3] = compound: C1CSC2=C(C(=O)N1)SC3=C2C=C(C=C3)O [kb NB 142-70] + Cc1nc(NC(=O)N2CCC[C@H]2C(N)=O)sc1-c1ccnc(C(C)(C)C(F)(F)F)c1 [Alpelisib] (partner 2 µM)
How it was run: as §1

[4] = compound: C1CSC2=C(C(=O)N1)SC3=C2C=C(C=C3)O [kb NB 142-70] + Cc1nc(Nc2ncc(C(=O)Nc3c(C)cccc3Cl)s2)cc(N2CCN(CCO)CC2)n1 [Dasatinib] (partner 0.075 µM)
How it was run: as §1

[5] = compound: C1CSC2=C(C(=O)N1)SC3=C2C=C(C=C3)O [kb NB 142-70] + CS(=O)(=O)CCNCc1ccc(-c2ccc3ncnc(Nc4ccc(OCc5cccc(F)c5)c(Cl)c4)c3c2)o1 [Lapatinib] (partner 2 µM)
How it was run: as §1

Cell Line | relative viability ([1]; first compound 0.02 µM) | relative viability ([1]; first compound 0.06325 µM) | relative viability ([1]; first compound 0.2 µM) | relative viability ([1]; first compound 0.6325 µM) | relative viability ([1]; first compound 2 µM) | relative viability ([2]; first compound 0.02 µM) | relative viability ([2]; first compound 0.06325 µM) | relative viability ([2]; first compound 0.2 µM) | relative viability ([2]; first compound 0.6325 µM) | relative viability ([2]; first compound 2 µM) | relative viability ([3]; first compound 0.1 µM) | relative viability ([3]; first compound 1 µM) | relative viability ([3]; first compound 3.162 µM) | relative viability ([4]; first compound 0.1 µM) | relative viability ([4]; first compound 1 µM) | relative viability ([4]; first compound 3.162 µM) | relative viability ([5]; first compound 0.1 µM) | relative viability ([5]; first compound 1 µM) | relative viability ([5]; first compound 3.162 µM)
HARA | 1.07 | 1.25 | 0.762 | 0.982 | 1.06 | 0.479 | 0.407 | 0.456 | 0.441 | 0.53 | 0.786 | 0.726 | 0.516 | 0.3 | 0.188 | 0.237 | 0.943 | 0.634 | 0.661
HCC-15 | 0.718 | 0.743 | 0.798 | 0.681 | 0.711 | 0.438 | 0.497 | 0.476 | 0.497 | 0.506 | 0.908 | 0.787 | 0.626 | 0.638 | 0.574 | 0.459 | 0.854 | 0.932 | 0.743
HCC-44 | 1.05 | 0.994 | 0.953 | 0.941 | 0.956 | 0.308 | 0.252 | 0.25 | 0.202 | 0.284 | 0.772 | 0.875 | 0.735 |  |  |  | 1.02 | 1.03 | 0.996
HCC-78 | 0.9 | 0.837 | 1.02 | 0.868 | 0.814 | 0.758 | 0.691 | 0.713 | 0.649 | 0.714 | 0.363 | 0.348 | 0.335 | 0.426 | 0.388 | 0.31 | 0.919 | 0.941 | 0.744
HCC-366 | 0.351 | 0.406 | 0.345 | 0.387 | 0.349 | 0.589 | 0.649 | 0.595 | 0.625 | 0.596 | 0.425 | 0.333 | 0.296 | 0.634 | 0.498 | 0.378 | 1.06 | 0.926 | 0.927
HCC-827 | 0.916 | 0.642 | 0.61 | 0.595 | 0.767 | 0.397 | 0.431 | 0.406 | 0.385 | 0.385 | 0.868 | 0.928 | 0.851 | 0.265 | 0.295 | 0.445 | 0.206 | 0.192 | 0.173
HOP-62 | 0.284 | 0.361 | 0.381 | 0.408 | 0.431 | 0.683 | 0.7 | 0.644 | 0.608 | 0.735 | 1.18 | 0.777 | 0.937 | 0.72 | 0.65 | 0.763 | 1.07 | 0.97 | 0.974
IA-LM | 0.986 | 0.722 | 0.951 | 0.896 | 1 |  |  |  |  |  | 0.795 | 0.759 | 0.756 |  |  |  | 0.771 | 0.95 | 0.787
LCLC-103H | 0.685 | 0.793 | 0.787 | 0.765 | 0.752 | 0.344 | 0.331 | 0.332 | 0.327 | 0.315 | 0.998 | 0.944 | 0.961 | 0.459 | 0.521 | 0.505 |  |  | 
NCI-H441 | 0.546 | 0.58 | 0.52 | 0.493 | 0.598 | 0.898 | 0.819 | 0.954 | 1.01 | 0.844 | 0.92 | 0.62 | 0.484 | 0.634 | 0.575 | 0.366 |  |  | 
NCI-H522 | 0.666 | 0.777 | 0.721 | 0.685 | 0.656 |  | 0.66 | 0.585 | 0.664 | 0.651 |  |  |  | 1.03 | 0.856 | 0.704 |  |  | 
NCI-H1299 | 0.96 | 0.916 | 0.977 | 0.918 | 0.998 |  |  |  |  |  | 1.02 | 1.11 | 1.17 |  |  |  | 0.919 | 1.02 | 1
NCI-H1563 |  |  |  |  |  | 0.606 | 0.664 | 0.658 | 0.633 | 0.712 | 0.963 | 0.967 | 0.932 | 0.464 | 0.467 | 0.424 | 0.969 | 0.889 | 0.944
NCI-H1623 |  |  |  |  |  | 0.604 | 0.671 | 0.6 | 0.577 | 0.555 |  |  |  | 0.552 | 0.558 | 0.428 |  |  | 
NCI-H1648 | 0.577 | 1.03 | 1.02 | 0.649 | 0.56 |  |  |  |  |  |  |  |  |  |  |  |  |  | 
NCI-H1650 | 0.802 | 0.89 | 0.875 | 0.827 | 0.774 | 0.426 | 0.49 |  | 0.515 | 0.449 |  |  |  | 0.348 | 0.382 | 0.253 | 0.874 | 0.88 | 0.69
NCI-H1703 | 0.498 | 0.356 | 0.644 | 0.367 | 0.368 |  |  |  |  |  | 0.391 | 0.362 | 0.444 |  |  |  | 1.1 | 1.08 | 1.31
NCI-H2342 | 0.623 | 0.477 | 0.434 | 0.447 | 0.422 | 0.685 | 0.582 | 0.733 | 0.515 | 0.537 |  |  |  | 0.349 | 0.311 | 0.255 |  |  | 
SW 900 | 0.86 | 0.881 | 0.88 | 0.693 | 0.994 |  | 0.729 | 0.599 | 0.587 | 0.661 |  |  |  | 0.517 | 0.478 | 0.208 |  |  | 
